Patent publication US20150315188A1, “COMPOUNDS AND METHODS FOR TREATMENT OF HYPERTENSION” (MEDIVATION TECHNOLOGIES, INC., priority 2012, published 2015)
Values belong to the compound of their own block, whether it stands above or below them.

Legend:
[1] = target: T1, Human adrenergic α2B receptor (Homo sapiens, UniProt P18089); assay: β-Arrestin GPCR functional assay, adrenergic α2B (Protocol B); format: cell-based; settings: for IC50: β-arrestin, antagonist vs nor-epinephrine EC80, read-out: IC50 Adrenergic α2B
T1 sequence (P18089 1-450): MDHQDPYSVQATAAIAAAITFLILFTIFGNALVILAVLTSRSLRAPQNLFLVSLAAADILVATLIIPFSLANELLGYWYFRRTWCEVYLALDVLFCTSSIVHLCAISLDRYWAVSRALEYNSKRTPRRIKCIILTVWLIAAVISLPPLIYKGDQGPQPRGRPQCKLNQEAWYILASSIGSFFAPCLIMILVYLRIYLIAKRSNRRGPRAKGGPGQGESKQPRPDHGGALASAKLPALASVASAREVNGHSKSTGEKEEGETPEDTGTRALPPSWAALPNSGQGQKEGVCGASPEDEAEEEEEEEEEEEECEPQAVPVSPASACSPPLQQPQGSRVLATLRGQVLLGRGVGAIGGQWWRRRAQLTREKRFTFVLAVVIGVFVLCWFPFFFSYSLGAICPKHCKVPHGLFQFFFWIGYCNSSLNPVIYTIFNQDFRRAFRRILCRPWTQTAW
Method in brief: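 CHO cells overexpressing human α2B (PathHunter β-arrestin), 12,000 per well, 24 h at 37° C; compounds in 1% DMSO 30 min, then 50 nM norepinephrine (EC80) 90 min at 37° C.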

[2] = target: T2, Human adrenergic α2A receptor (Homo sapiens, UniProt P08913); assay: Radioligand binding, adrenergic α2A (Protocol Group B); design: purchased Milipore (Millipore); settings: for inhibition at 0.1 µM: 0.1 μM compound, read-out: Percentage inhibition of ligand binding, Adrenergic α2A (0.1 μM); for inhibition at 0.1 µM / inhibition at 0.3 µM / Ki: Protocol Group B; for inhibition at 0.3 µM: 0.3 μM compound, read-out: Percentage inhibition of ligand binding, Adrenergic α2A (0.3 μM); for Ki: estimated Ki
T2 sequence (P08913 1-465): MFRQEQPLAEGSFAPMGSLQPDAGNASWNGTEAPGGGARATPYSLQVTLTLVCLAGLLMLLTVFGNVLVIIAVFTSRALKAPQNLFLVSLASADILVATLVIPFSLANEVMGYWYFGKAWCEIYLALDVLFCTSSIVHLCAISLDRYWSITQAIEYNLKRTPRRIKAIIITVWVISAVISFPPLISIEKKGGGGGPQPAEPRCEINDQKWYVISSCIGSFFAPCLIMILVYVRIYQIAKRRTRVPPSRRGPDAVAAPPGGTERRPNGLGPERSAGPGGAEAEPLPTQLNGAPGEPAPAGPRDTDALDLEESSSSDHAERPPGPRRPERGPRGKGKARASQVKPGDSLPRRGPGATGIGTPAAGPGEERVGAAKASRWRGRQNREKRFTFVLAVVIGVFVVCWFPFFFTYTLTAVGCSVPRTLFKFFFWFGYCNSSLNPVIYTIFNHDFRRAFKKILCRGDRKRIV
Method in brief: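 Membranes from recombinant cells expressing the receptor, in 50 mM Tris-HCl pH 7.4 with 5 mM MgCl2, 1 mM CaCl2, 0.2% BSA; compounds incubated with 2 nM [^3H]MK-912 for 60 min at 25° C. Nonspecific binding defined by 10 μM rauwolscine; filtration, counting; percent inhibition of specific binding, or estimated Ki.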

[3] = target: T3, Human adrenergic α1B receptor (Homo sapiens, UniProt P35368); assay: Radioligand binding, adrenergic α1B (Protocol Group B); design: purchased Milipore (Millipore); settings: for inhibition at 0.1 µM: 0.1 μM compound, read-out: Percentage inhibition of ligand binding, Adrenergic α1B (0.1 μM); for inhibition at 0.1 µM / inhibition at 0.3 µM / Ki: Protocol Group B; for inhibition at 0.3 µM: 0.3 μM compound, read-out: Percentage inhibition of ligand binding, Adrenergic α1B (0.3 μM); for Ki: estimated Ki
T3 sequence (P35368 1-520): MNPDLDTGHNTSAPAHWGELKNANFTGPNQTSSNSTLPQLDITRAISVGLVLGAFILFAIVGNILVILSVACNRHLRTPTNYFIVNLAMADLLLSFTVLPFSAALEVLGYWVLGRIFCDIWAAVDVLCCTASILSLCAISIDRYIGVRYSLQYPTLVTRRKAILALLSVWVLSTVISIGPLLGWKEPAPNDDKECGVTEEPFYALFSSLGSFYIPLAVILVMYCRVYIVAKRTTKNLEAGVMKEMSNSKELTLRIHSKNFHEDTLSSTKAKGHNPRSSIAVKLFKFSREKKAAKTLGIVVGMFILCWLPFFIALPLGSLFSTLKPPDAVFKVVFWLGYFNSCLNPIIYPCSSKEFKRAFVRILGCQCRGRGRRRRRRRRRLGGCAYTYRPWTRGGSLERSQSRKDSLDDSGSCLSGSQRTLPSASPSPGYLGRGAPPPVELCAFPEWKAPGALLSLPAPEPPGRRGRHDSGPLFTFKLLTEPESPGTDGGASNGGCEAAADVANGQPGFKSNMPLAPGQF
Method in brief: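 Recombinant human α1B membranes incubated with test compound and 0.3 nM [3H]prazosin, 60 min at 25 °C, in 50 mM Tris-HCl pH 7.4, 10 mM MgCl2, 1 mM EDTA; nonspecific binding with 10 μM prazosin. Filter-bound radioactivity counted; values are % inhibition of specific binding or estimated Ki.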

- inhibition at 0.01 µM ([1]; 10 nM compound, nor-epinephrine at EC80 (50 nM), read-out: Percentage inhibition, Adrenergic α2B): 10%
- inhibition at 0.03 µM ([1]; 30 nM compound, nor-epinephrine at EC80 (50 nM), read-out: Percentage inhibition, Adrenergic α2B): 12%
- inhibition at 0.1 µM ([1]; 0.1 μM compound, nor-epinephrine at EC80 (50 nM), read-out: Percentage inhibition, Adrenergic α2B): 27%
- IC50 [1]: 382 nM
- inhibition at 0.0032 µM ([2]; 3.2 nM compound, concentration series, read-out: Percentage inhibition of ligand binding, Adrenergic α2A, 3.2 nM): 14%
- inhibition at 0.01 µM ([2]; 10 nM compound, concentration series, read-out: Percentage inhibition of ligand binding, Adrenergic α2A, 10 nM): 21%
- inhibition at 0.03 µM ([2]; 0.03 μM compound, concentration series, read-out: Percentage inhibition of ligand binding, Adrenergic α2A, 0.03 μM): 37%
- inhibition at 0.1 µM [2]: 55%
- inhibition at 0.3 µM [2]: 64%
- inhibition at 0.32 µM ([2]; 0.32 μM compound, concentration series, read-out: Percentage inhibition of ligand binding, Adrenergic α2A, 0.32 μM): 67%
- inhibition at 1 µM ([2]; 1 μM compound, concentration series, read-out: Percentage inhibition of ligand binding, Adrenergic α2A, 1 μM): 76%
- inhibition at 3.2 µM ([2]; 3.2 μM compound, concentration series, read-out: Percentage inhibition of ligand binding, Adrenergic α2A, 3.2 μM): 88%
- inhibition at 10 µM ([2]; 10 μM compound, concentration series, read-out: Percentage inhibition of ligand binding, Adrenergic α2A, 10 μM): 92%
- Ki [2]: 20.8 nM
- inhibition at 0.0032 µM ([3]; 3.2 nM compound, concentration series, read-out: Percentage inhibition of ligand binding, Adrenergic α1B, 3.2 nM): 21%
- inhibition at 0.01 µM ([3]; 10 nM compound, concentration series, read-out: Percentage inhibition of ligand binding, Adrenergic α1B, 10 nM): 22%
- inhibition at 0.03 µM ([3]; 0.03 μM compound, concentration series, read-out: Percentage inhibition of ligand binding, Adrenergic α1B, 0.03 μM): 32%
- inhibition at 0.1 µM [3]: 53%
- inhibition at 0.3 µM [3]: 65%
- inhibition at 0.32 µM ([3]; 0.32 μM compound, concentration series, read-out: Percentage inhibition of ligand binding, Adrenergic α1B, 0.32 μM): 64%
- inhibition at 1 µM ([3]; 1 μM compound, concentration series, read-out: Percentage inhibition of ligand binding, Adrenergic α1B, 1 μM): 72%
- inhibition at 3.2 µM ([3]; 3.2 μM compound, concentration series, read-out: Percentage inhibition of ligand binding, Adrenergic α1B, 3.2 μM): 85%
- inhibition at 10 µM ([3]; 10 μM compound, concentration series, read-out: Percentage inhibition of ligand binding, Adrenergic α1B, 10 μM): 93%
- Ki [3]: 56.4 nM
SMILES: Cc1ccc2c(c1)c1c(n2CC(O)c2ccncc2)CC[N+]2([O-])CCCC12 (stereo not shown) [compound 23, 7-(2-hydroxy-2-(pyridin-4-yl)ethyl)-10-methyl-1,2,3,4,5,6,7,11c-octahydroindolizino[7,8-b]indole 4-oxide]

SMILES: Cc1ccc2c(c1)c1c(n2C[C@@H](OC2CCCC2)c2ccncc2)CCN2CCC[C@H]12 [compound 82, (11cR)-7-[(25)-2-(cyclopentoxy)-2-(4-pyridyl)ethyl]-10-methyl-1,2,3,5,6,11c-hexahydroindolizino[7,8-b]indole]
- IC50 [1]: 25.4 nM
- inhibition at 0.1 µM [2]: 92%
- inhibition at 0.3 µM [2]: 97%
- Ki [2]: 4.5 nM
- inhibition at 0.1 µM [3]: 56%
- inhibition at 0.3 µM [3]: 81%
- Ki [3]: 32.7 nM
